{"source": "patent US20240252581A1", "about": "“COMPOSITIONS AND METHODS FOR TREATING RESPIRATORY DISTRESS” (S.I.S. SHULOV INNOVATIVE SCIENCE LTD., priority 2021, published 2024)", "system": "inflammatory cytokines in BALF", "test": "LPS-induced acute lung injury / ARDS mouse model: BALF cytokine concentrations (multiplex ELISA)", "format": "in vivo, BALB/c mice", "set-up": "key to INF-γ / IL-1α / IL-5 / IL-6 / IL-10 / IL-12 / IL-17 / KC / MCP-1 / TNF-α / CXCL10 / RANTES / G-CSF / CCL3: (+) indicates activation; (−) indicates inhibition", "protocol": "In order to test the efficacy of ZEP3 sodium on lung inflammation, the lipopolysaccharide (LPS)-induced acute lung injury model was used. In particular, LPS was administered intratracheally at doses of 10 or 40 mg/kg body weight (BW) corresponding to 0.2 or 0.8 mg/mouse, respectively.\nZEP3 sodium was administered by inhalation (INH) at doses of 25 or 250 mg/kg BW (0.5 or 5 mg/mouse, respectively), or intratracheally (IT) at doses of 5 or 20 mg/kg BW (0.1 or 0.4 mg/mouse, respectively) 6 hours after LPS administration and its effect was measured 72 hours following administration in the branchial alveolar fluid (BALF) using FACS instrumentation.\nTo detect cytokine release in lungs fluid, cytokine concentrations were assessed in BALF samples using high sensitivity multiplex ELISA assays for: IFN-γ, IL-1α, IL-5, IL-6, IL-10, IL-12 (p70), IL-17A, KC, MCP-1, TNF-α, IP-10, RANTES, G-CSF, MIP-1α and RANTES. ZEP3Na administered intratracheally at 0.1 and 0.4 mg per mouse after instillation of 0.2 mg LPS inhibited the concentration of following interleukins: IL-1α, IL-6, IL-10, IL-12, IL-17, KC, MCP-1, TNF-α and G-CSF.", "key": {"[1]": {"conditions": "Group 9: LPS 0.2 mg + ZEP3Na 0.4 mg IT, BALF, group mean"}, "[2]": {"conditions": "Group 9: LPS 0.2 mg + ZEP3Na 0.4 mg IT, BALF, individual mice"}, "[3]": {"conditions": "LPS 0.2 mg + ZEP3Na (IT) 0.1 mg, BALF"}, "[4]": {"conditions": "LPS 0.2 mg + ZEP3Na (IT) 0.4 mg, BALF"}, "[5]": {"conditions": "LPS 0.8 mg + ZEP3Na (INH) 0.5 mg, BALF"}, "[6]": {"conditions": "LPS 0.8 mg + ZEP3Na (INH) 5 mg, BALF"}, "[7]": {"conditions": "LPS 0.8 mg + ZEP3Na (IT) 0.1 mg, BALF"}, "[8]": {"conditions": "LPS 0.8 mg + ZEP3Na (IT) 0.4 mg, BALF"}}, "note": "Values joined by “and” are separate entries in the source; they are usually repeats but may differ in a detail not shown here. Identical values can stand only once. Square brackets hold non-standard residues; d marks the D form. Peptide text beside a SMILES is read from it. * marks the point of attachment. pGlu = O=C1CC[C@@H](C(=O)O)N1; Octanoyl = CCCCCCCC(=O)*"}
{"smiles": "CCCCCCCC(=O)NCCCC[C@H](NC(=O)[C@H](Cc1c[nH]c2ccccc12)NC(=O)[C@H](CC(N)=O)NC(=O)[C@@H]1CCC(=O)N1)C(=O)O", "note": "[ZEP3Na, pGlu-Asn-Trp-Lys(Octanoyl)-ONa] ([pGlu]NWK(Octanoyl)-OH)", "values": [{"measurement": "KC", "setting": "[1]", "value": 751.10, "unit": "pg/mL"}, {"measurement": "MCP-1", "setting": "[1]", "value": 180.27, "unit": "pg/mL"}, {"measurement": "G-CSF", "setting": "[2]", "value": "176.85 pg/mL and 200.57 pg/mL and 585.70 pg/mL and 211.19 pg/mL and 8.45 pg/mL and 138.72 pg/mL and 227.63 pg/mL"}, {"measurement": "G-CSF (pg/ml)", "setting": "[2]", "value": "undetected"}, {"measurement": "IL-12 (p70)", "setting": "[2]", "value": "408.22 pg/ml and 471.74 pg/ml and 15.41 pg/ml (2×) and 262.69 pg/ml and 11.53 pg/ml and 8.09 pg/ml and 115.45 pg/ml and 140.60 pg/ml"}, {"measurement": "IL-17A", "setting": "[2]", "value": "386.05 pg/mL and 1361.97 pg/mL and 15.26 pg/mL and 3386.75 pg/mL and 22.20 pg/mL and 4.57 pg/mL and 2.99 pg/mL and 21.13 pg/mL and 55.67 pg/mL"}, {"measurement": "KC", "setting": "[2]", "value": "1154.03 pg/mL and 1559.44 pg/mL and 1143.16 pg/mL and 1153.90 pg/mL and 127.59 pg/mL and 63.82 pg/mL and 75.31 pg/mL and 656.41 pg/mL and 826.24 pg/mL"}, {"measurement": "MCP-1", "setting": "[2]", "value": "240.17 pg/mL and 115.81 pg/mL and 823.17 pg/mL and 151.55 pg/mL and 14.15 pg/mL and 102.63 pg/mL and 174.95 pg/mL"}, {"measurement": "MCP-1 (pg/ml)", "setting": "[2]", "value": "undetected"}, {"measurement": "CXCL10", "setting": "[3]", "value": "−"}, {"measurement": "G-CSF", "setting": "[3]", "value": "−"}, {"measurement": "IL-1α", "setting": "[3]", "value": "−"}, {"measurement": "IL-6", "setting": "[3]", "value": "−"}, {"measurement": "IL-10", "setting": "[3]", "value": "−"}, {"measurement": "IL-12", "setting": "[3]", "value": "−"}, {"measurement": "IL-17", "setting": "[3]", "value": "−"}, {"measurement": "KC", "setting": "[3]", "value": "−"}, {"measurement": "MCP-1", "setting": "[3]", "value": "−"}, {"measurement": "TNF-α", "setting": "[3]", "value": "−"}, {"measurement": "CXCL10", "setting": "[4]", "value": "−"}, {"measurement": "G-CSF", "setting": "[4]", "value": "−"}, {"measurement": "IL-1α", "setting": "[4]", "value": "−"}, {"measurement": "IL-6", "setting": "[4]", "value": "−"}, {"measurement": "IL-10", "setting": "[4]", "value": "−"}, {"measurement": "IL-12", "setting": "[4]", "value": "−"}, {"measurement": "IL-17", "setting": "[4]", "value": "−"}, {"measurement": "KC", "setting": "[4]", "value": "−"}, {"measurement": "MCP-1", "setting": "[4]", "value": "−"}, {"measurement": "TNF-α", "setting": "[4]", "value": "−"}, {"measurement": "CCL3", "setting": "[5]", "value": "−"}, {"measurement": "CXCL10", "setting": "[5]", "value": "−"}, {"measurement": "G-CSF", "setting": "[5]", "value": "−"}, {"measurement": "IL-1α", "setting": "[5]", "value": "−"}, {"measurement": "IL-5", "setting": "[5]", "value": "−"}, {"measurement": "IL-6", "setting": "[5]", "value": "−"}, {"measurement": "IL-10", "setting": "[5]", "value": "+"}, {"measurement": "IL-12", "setting": "[5]", "value": "−"}, {"measurement": "IL-17", "setting": "[5]", "value": "−"}, {"measurement": "INF-γ", "setting": "[5]", "value": "−"}, {"measurement": "KC", "setting": "[5]", "value": "−"}, {"measurement": "MCP-1", "setting": "[5]", "value": "−"}, {"measurement": "RANTES", "setting": "[5]", "value": "−"}, {"measurement": "TNF-α", "setting": "[5]", "value": "−"}, {"measurement": "CCL3", "setting": "[6]", "value": "−"}, {"measurement": "CXCL10", "setting": "[6]", "value": "−"}, {"measurement": "G-CSF", "setting": "[6]", "value": "−"}, {"measurement": "IL-1α", "setting": "[6]", "value": "−"}, {"measurement": "IL-5", "setting": "[6]", "value": "−"}, {"measurement": "IL-6", "setting": "[6]", "value": "−"}, {"measurement": "IL-10", "setting": "[6]", "value": "+"}, {"measurement": "IL-12", "setting": "[6]", "value": "−"}, {"measurement": "IL-17", "setting": "[6]", "value": "−"}, {"measurement": "INF-γ", "setting": "[6]", "value": "−"}, {"measurement": "KC", "setting": "[6]", "value": "−"}, {"measurement": "MCP-1", "setting": "[6]", "value": "−"}, {"measurement": "RANTES", "setting": "[6]", "value": "−"}, {"measurement": "TNF-α", "setting": "[6]", "value": "−"}, {"measurement": "IL-12", "setting": "[7]", "value": "−"}, {"measurement": "TNF-α", "setting": "[7]", "value": "−"}, {"measurement": "IL-12", "setting": "[8]", "value": "−"}, {"measurement": "TNF-α", "setting": "[8]", "value": "−"}, {"measurement": "levels of INF-γ, IL-1α, IL-5, IL-6, IL-12, IL-17, KC, MCP-1, TNF-α, CXCL10, RANTES, G-CSF, and CCL3", "setting": "administered by inhalation following LPS instillation", "value": "significantly inhibited the expression and reduced the levels"}, {"measurement": "levels of IL-1α, IL-6, IL-10, IL-12, IL-17, KC, MCP-1, TNF-α, CXCL10, and G-CSF", "setting": "administered intratracheally following LPS instillation", "value": "significantly inhibited the expression and reduced the levels"}, {"measurement": "concentration of IL-1α, IL-6, IL-10, IL-12, IL-17, KC, MCP-1, TNF-α and G-CSF", "setting": "intratracheally at 0.1 and 0.4 mg per mouse after instillation of 0.2 mg LPS, BALF", "value": "inhibited"}]}
